Experimental data published in patent publication US10758534B2 (Vertex Pharmaceuticals Incorporated, priority 2014, dated 2020).

Target: T1, F508del (Homo sapiens, UniProt P13569, DEL508-508)
T1 construct: expressed in transfected cells
Experiment: Protocol 1: membrane potential optical assay (FLIPR III, voltage sensing dye), identification of potentiator compounds
Assay type: cell-based
Conditions: Table 3, compounds of Table 1
Procedure, shortened: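 Gating potentiation is read as a membrane-potential fluorescence change (FLIPR III, voltage-sensing dye) after one forskolin addition under a Cl− gradient, with gluconate replacing chloride, pH 7.4. Cells are F508del-expressing NIH3T3 mouse fibroblasts held 24 h at 27 °C and exposed to compound before dye loading.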

T1 sequence (P13569 with tags, fused parts or gaps DEL508-508): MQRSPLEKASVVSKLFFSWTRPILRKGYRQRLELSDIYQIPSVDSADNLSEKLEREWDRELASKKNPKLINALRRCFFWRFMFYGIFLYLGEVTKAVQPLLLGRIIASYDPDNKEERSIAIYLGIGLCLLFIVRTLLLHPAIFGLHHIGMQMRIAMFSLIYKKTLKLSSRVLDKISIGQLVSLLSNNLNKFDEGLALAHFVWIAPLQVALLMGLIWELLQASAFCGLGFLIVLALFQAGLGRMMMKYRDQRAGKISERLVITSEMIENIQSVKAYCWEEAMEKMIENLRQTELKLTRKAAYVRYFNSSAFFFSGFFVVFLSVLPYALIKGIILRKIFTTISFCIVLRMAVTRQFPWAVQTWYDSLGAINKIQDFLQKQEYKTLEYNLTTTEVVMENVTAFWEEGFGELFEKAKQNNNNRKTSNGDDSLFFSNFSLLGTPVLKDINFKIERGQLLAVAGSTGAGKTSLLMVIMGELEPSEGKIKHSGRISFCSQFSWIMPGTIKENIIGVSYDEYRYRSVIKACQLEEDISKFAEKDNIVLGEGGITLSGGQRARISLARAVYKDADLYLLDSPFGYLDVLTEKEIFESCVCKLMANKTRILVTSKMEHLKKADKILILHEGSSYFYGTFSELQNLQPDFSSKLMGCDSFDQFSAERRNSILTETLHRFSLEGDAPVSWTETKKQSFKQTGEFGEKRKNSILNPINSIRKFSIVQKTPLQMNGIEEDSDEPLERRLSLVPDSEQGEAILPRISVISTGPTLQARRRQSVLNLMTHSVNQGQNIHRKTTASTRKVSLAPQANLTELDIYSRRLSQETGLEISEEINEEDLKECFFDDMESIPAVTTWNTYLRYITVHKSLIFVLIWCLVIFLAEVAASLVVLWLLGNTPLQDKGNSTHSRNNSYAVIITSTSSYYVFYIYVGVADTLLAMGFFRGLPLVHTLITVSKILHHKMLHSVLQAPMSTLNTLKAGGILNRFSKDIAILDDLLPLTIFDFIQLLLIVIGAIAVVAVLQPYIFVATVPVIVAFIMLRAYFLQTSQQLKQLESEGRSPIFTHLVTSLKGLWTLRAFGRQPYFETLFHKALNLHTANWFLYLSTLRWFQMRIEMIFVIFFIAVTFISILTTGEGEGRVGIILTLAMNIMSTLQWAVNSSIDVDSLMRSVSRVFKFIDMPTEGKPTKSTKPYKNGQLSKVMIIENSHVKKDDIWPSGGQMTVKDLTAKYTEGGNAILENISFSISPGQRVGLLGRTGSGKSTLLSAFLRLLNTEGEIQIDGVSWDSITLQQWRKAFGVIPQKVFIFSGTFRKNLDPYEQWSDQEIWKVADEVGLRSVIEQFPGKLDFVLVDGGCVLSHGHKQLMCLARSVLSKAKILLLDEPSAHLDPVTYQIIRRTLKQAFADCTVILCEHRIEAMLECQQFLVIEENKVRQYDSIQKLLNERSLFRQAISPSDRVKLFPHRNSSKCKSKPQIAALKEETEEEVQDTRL

Structure (SMILES) | EC30
CC(C)COc1cc(F)cc(-c2ccc(C(=O)NS(=O)(=O)c3cccc(N)n3)c(N3C[C@@H](C)C[C@H](C)C3)n2)c1 [Compound 1210, N-[(6-amino-2-pyridyl)sulfonyl]-2-[(3S,5S)-3,5-dimethyl-1-piperidyl]-6-(3-fluoro-5-isobutoxy-phenyl)pyridine-3-carboxamide] | +++ (“+++” means <3 uM)
Cc1ccc(Oc2nc(-c3cc(F)cc(OC(C)C)c3)ccc2C(=O)NS(=O)(=O)c2cc[nH]n2)c(C)c1 [Compound 1213, 2-(2,4-dimethylphenoxy)-6-(3-fluoro-5-isopropoxy-phenyl)-N-(1H-pyrazol-3-ylsulfonyl)pyridine-3-carboxamide] | ++ (“++” means between 3 uM and 10 uM)
COc1ccc(-c2ccc(C(=O)NS(=O)(=O)c3cccc(N)n3)c(N3[C@H](C)CC[C@@H]3C)n2)cc1 [Compound 1215, N-[(6-amino-2-pyridyl)sulfonyl]-2-[(2S,5R)-2,5-dimethylpyrrolidin-1-yl]-6-(4-methoxyphenyl)pyridine-3-carboxamide] | ++ (“++” means between 3 uM and 10 uM)
CC(C)COc1cc(F)cc(-c2ccc(C(=O)NS(=O)(=O)c3cccc(N)n3)c(O[C@@H]3C[C@H]4CC[C@@H]3C4)n2)c1 [Compound 1216, N-[(6-amino-2-pyridyl)sulfonyl]-6-(3-fluoro-5-isobutoxy-phenyl)-2-[(1R,2R,4S)-norbornan-2-yl]oxy-pyridine-3-carboxamide] | +++ (“+++” means <3 uM)
CC(C)(C)c1ccc(C(=O)NS(=O)(=O)c2cccc(N)c2)c(-c2ccc(F)c(F)c2)n1 [Compound 1217, N-(3-aminophenyl)sulfonyl-6-tert-butyl-2-(3,4-difluorophenyl)pyridine-3-carboxamide] | + (“+” means greater than 10 uM)
CCC1CCCN1c1nc(-c2cc(F)cc(OCC(C)C)c2)ccc1C(=O)NS(=O)(=O)c1cccc(N)n1 (stereo not shown) [Compound 1218, N-[(6-amino-2-pyridyl)sulfonyl]-2-(2-ethylpyrrolidin-1-yl)-6-(3-fluoro-5-isobutoxy-phenyl)pyridine-3-carboxamide] | +++ (“+++” means <3 uM)
Cc1cc(C)c(Oc2nc(-n3cc(C)cn3)ccc2C(=O)NS(=O)(=O)c2cccc(N)n2)c(C)c1 [Compound 1220, N-[(6-amino-2-pyridyl)sulfonyl]-6-(4-methylpyrazol-1-yl)-2-(2,4,6-trimethylphenoxy)pyridine-3-carboxamide] | +++ (“+++” means <3 uM)
CCC1CCC(C)N1c1nc(-c2cc(F)cc(OCC(C)C)c2)ccc1C(=O)NS(=O)(=O)c1cccc(N)n1 (stereo not shown) [Compound 1222, N-[(6-amino-2-pyridyl)sulfonyl]-2-(2-ethyl-5-methyl-pyrrolidin-1-yl)-6-(3-fluoro-5-isobutoxy-phenyl)pyridine-3-carboxamide] | +++ (“+++” means <3 uM)
Cc1cc(C)c(Oc2nc3c(cc2C(=O)NS(=O)(=O)c2nccnc2N)CCCC3(C)C)c(C)c1 [Compound 1223, N-(3-aminopyrazin-2-yl)sulfonyl-8,8-dimethyl-2-(2,4,6-trimethylphenoxy)-6,7-dihydro-5H-quinoline-3-carboxamide] | +++ (“+++” means <3 uM)
CC(C)COc1cncc(-c2ccc(C(=O)NS(=O)(=O)c3cccc(N)n3)c(N3[C@H](C)CC[C@@H]3C)n2)c1 [Compound 1224, N-[(6-amino-2-pyridyl)sulfonyl]-2-[(2S,5R)-2,5-dimethylpyrrolidin-1-yl]-6-(5-isobutoxy-3-pyridyl)pyridine-3-carboxamide] | ++ (“++” means between 3 uM and 10 uM)
COc1ccc(OC)c(-c2ccc(C(=O)NS(=O)(=O)c3cccc(N)n3)c(Oc3c(C)cc(C)cc3C)n2)c1 [Compound 1225, N-[(6-amino-2-pyridyl)sulfonyl]-6-(2,5-dimethoxyphenyl)-2-(2,4,6-trimethylphenoxy)pyridine-3-carboxamide] | +++ (“+++” means <3 uM)
CC(C)COc1cc(F)cc(-c2ccc(C(=O)NS(=O)(=O)c3cccc(N)n3)c(OC3CC4CCC3C4)n2)c1 (stereo not shown) [Compound 1227, N-[(6-amino-2-pyridyl)sulfonyl]-6-(3-fluoro-5-isobutoxy-phenyl)-2-norbornan-2-yloxy-pyridine-3-carboxamide] | +++ (“+++” means <3 uM)

Further lines, results first:

EC30 | Structure (SMILES)
+++ (“+++” means <3 uM) | Cc1cc(C)c(Oc2nc(-c3ccc4c(c3)OCO4)ccc2C(=O)NS(=O)(=O)c2cccc(N)n2)c(C)c1 [Compound 1207, N-[(6-amino-2-pyridyl)sulfonyl]-6-(1,3-benzodioxol-5-yl)-2-(2,4,6-trimethylphenoxy)pyridine-3-carboxamide]
+++ (“+++” means <3 uM) | Cc1cc(C)c(Oc2nc(C(C)(C)C)ccc2C(=O)NS(=O)(=O)c2nccnc2N)c(C)c1 [Compound 1208, N-(3-aminopyrazin-2-yl) sulfonyl-6-tert-butyl-2-(2,4,6-trimethylphenoxy)pyridine-3-carboxamide]
+++ (“+++” means <3 uM) | CC(C)Oc1ccc(-c2ccc(C(=O)NS(=O)(=O)c3cccc(N)n3)c(N3CCC[C@H](c4ccccc4)C3)n2)cn1 [Compound 1209]
++ (“++” means between 3 uM and 10 uM) | C=C(C)c1ccc(C(=O)NS(=O)(=O)c2cccc(N)n2)c(Oc2c(C)cc(C)cc2C)n1 [Compound 1211, N-[(6-amino-2-pyridyl)sulfonyl]-6-isopropenyl-2-(2,4,6-trimethylphenoxy)pyridine-3-carboxamide]
+++ (“+++” means <3 uM) | COc1ccc(-c2ccc(C(=O)NS(=O)(=O)c3cccc(N)n3)c(Oc3c(C)cc(C)cc3C)n2)c(C)n1 [Compound 1212, N-[(6-amino-2-pyridyl)sulfonyl]-6-(6-methoxy-2-methyl-3-pyridyl)-2-(2,4,6-trimethylphenoxy)pyridine-3-carboxamide]
++ (“++” means between 3 uM and 10 uM) | CCOC1CCN(c2nc(-c3ccc(OC(C)C)nc3)ccc2C(=O)NS(=O)(=O)c2cccc(N)n2)CC1 [Compound 1214, N-[(6-amino-2-pyridyl)sulfonyl]-2-(4-ethoxy-1-piperidyl)-6-(6-isopropoxy-3-pyridyl)pyridine-3-carboxamide]
++ (“++” means between 3 uM and 10 uM) | CC(C)(C)c1ccc(C(=O)NS(=O)(=O)c2cccc(N)n2)c(C2CCCC2)n1 [Compound 1219, N-[(6-amino-2-pyridyl)sulfonyl]-6-tert-butyl-2-cyclopentyl-pyridine-3-carboxamide]
+++ (“+++” means <3 uM) | Cc1cc(C)c(Oc2nc(-c3ccccc3Cl)ccc2C(=O)NS(=O)(=O)c2cccc(N)n2)c(C)c1 [Compound 1221, N-[(6-amino-2-pyridyl)sulfonyl]-6-(2-chlorophenyl)-2-(2,4,6-trimethylphenoxy)pyridine-3-carboxamide]
+++ (“+++” means <3 uM) | Cc1cc(C)c(Oc2nc(C3(C)CC3)ccc2C(=O)NS(=O)(=O)c2ccc[nH]c2=O)c(C)c1 [Compound 1226, 6-(1-methylcyclopropyl)-N-[(2-oxo-1H-pyridin-3-yl)sulfonyl]-2-(2,4,6-trimethylphenoxy)pyridine-3-carboxamide]
++ (“++” means between 3 uM and 10 uM) | Cc1cc(C)c(Oc2nc(-c3ccc(CN)cc3)ccc2C(=O)NS(=O)(=O)c2cccc(N)n2)c(C)c1 [Compound 1228, 6-[4-(aminomethyl)phenyl]-N-[(6-amino-2-pyridyl)sulfonyl]-2-(2,4,6-trimethylphenoxy)pyridine-3-carboxamide]
